Values joined by “and” are separate entries in the source; they are usually repeats but may differ in a detail not shown here. Equal entries are not always repeated.
Tested on: 519858-162-T-J1-PDC complex spheroid growth, % test/control
Assay: Anticancer human tumor 519858-162-T-J1-PDC patient-derived colon adenocarcinoma cell line growth inhibition [Asc]
Conditions: for viability, T/C: stronger effect = lower value
How it was run: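 Complex spheroids combining tumor cells with HUVEC endothelial cells and human MSCs, at 37 degrees C, 5% CO2; agents tested alone or combined, half-log dilutions from at or near clinical Cmax, or 10 microM if Cmax unknown.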

[1] = curve of first compound, second compound 0.0316 µM
[2] = curve of first compound, second compound 0.1 µM
[3] = curve of first compound, second compound 0.316 µM
[4] = curve of first compound, second compound 1 µM
[5] = second compound 0.0316 µM, first compound 0.00316 µM
[6] = second compound 0.0316 µM, first compound 0.01 µM
[7] = second compound 0.0316 µM, first compound 0.0316 µM
[8] = second compound 0.0316 µM, first compound 0.1 µM
[9] = second compound 0.1 µM, first compound 0.00316 µM
[10] = second compound 0.1 µM, first compound 0.01 µM
[11] = second compound 0.1 µM, first compound 0.0316 µM
[12] = second compound 0.1 µM, first compound 0.1 µM
[13] = second compound 0.316 µM, first compound 0.00316 µM
[14] = second compound 0.316 µM, first compound 0.01 µM
[15] = second compound 0.316 µM, first compound 0.0316 µM
[16] = second compound 0.316 µM, first compound 0.1 µM
[17] = second compound 1 µM, first compound 0.00316 µM
[18] = second compound 1 µM, first compound 0.01 µM
[19] = second compound 1 µM, first compound 0.0316 µM
[20] = second compound 1 µM, first compound 0.1 µM
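Also: seven day drug exposure begun three days after spheroid seeding.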
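For viability, T/C in this document: 100% = DMSO vehicle wells and lower values mean less viable spheroid.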

O=C(c1ccc(F)c(F)c1Nc1ccc(I)cc1F)N1CC(O)([C@@H]2CCCCN2)C1 + Cc1c(S(C)(=O)=O)c(-c2cc(F)cc(N3CCN(c4ccc(NS(=O)(=O)c5ccc(NC(CCN6CCC(C(=O)OCCCP(=O)(O)O)CC6)CSc6ccccc6)c(S(=O)(=O)C(F)(F)F)c5)cc4)CC3)c2)c(-c2ccc(Cl)cc2)n1C(C)C
IC50 [1]: 283 nM | IC50 [2]: 212 nM | IC50 [3]: 164 nM | IC50 [4]: 232 nM | IC50 (curve of first compound, second compound 3.16 µM): 235 nM | IC50 (curve of first compound, second compound 10 µM): 122 nM | viability, T/C [5]: 113% | viability, T/C [6]: 84.2% | viability, T/C [7]: 78.6% | viability, T/C [8]: 115% | viability, T/C (second compound 0.0316 µM, first compound 0.316 µM): 44.9% | viability, T/C (second compound 0.0316 µM, first compound 1 µM): 14.5% | viability, T/C [9]: 93.6% | viability, T/C [10]: 91.4% | viability, T/C [11]: 76.5% | viability, T/C [12]: 50.8% | viability, T/C (second compound 0.1 µM, first compound 0.316 µM): 54.6% | viability, T/C (second compound 0.1 µM, first compound 1 µM): 18.9% | viability, T/C [13]: 81.8% | viability, T/C [14]: 92.2% | viability, T/C [15]: 110% | viability, T/C [16]: 63.8% | viability, T/C (second compound 0.316 µM, first compound 0.316 µM): 39.2% | viability, T/C (second compound 0.316 µM, first compound 1 µM): 24.1% | viability, T/C [17]: 108% | viability, T/C [18]: 92.1% | viability, T/C [19]: 72.5% | viability, T/C [20]: 54.7% | viability, T/C (second compound 1 µM, first compound 0.316 µM): 66% | viability, T/C (second compound 1 µM, first compound 1 µM): 19.5% | viability, T/C (second compound 3.16 µM, first compound 0.00316 µM): 61.8% | viability, T/C (second compound 3.16 µM, first compound 0.01 µM): 82.7% | viability, T/C (second compound 3.16 µM, first compound 0.0316 µM): 60.3% | viability, T/C (second compound 3.16 µM, first compound 0.1 µM): 72% | viability, T/C (second compound 3.16 µM, first compound 0.316 µM): 43.3% | viability, T/C (second compound 3.16 µM, first compound 1 µM): 12.9% | viability, T/C (second compound 10 µM, first compound 0.00316 µM): 75.6% | viability, T/C (second compound 10 µM, first compound 0.01 µM): 59.8% | viability, T/C (second compound 10 µM, first compound 0.0316 µM): 47.1% | viability, T/C (second compound 10 µM, first compound 0.1 µM): 60.5% | viability, T/C (second compound 10 µM, first compound 0.316 µM): 39.3% | viability, T/C (second compound 10 µM, first compound 1 µM): 9.69%

NC(=O)C(=Cn1cnc(-c2cc(C(F)(F)F)cc(C(F)(F)F)c2)n1)c1cncnc1
viability, T/C (compound 0.000949 µM): 106% and 86.6% and 101% | viability, T/C (compound 0.003 µM): 105% and 110% and 63.5% | viability, T/C (compound 0.00949 µM): 101% and 62.7% and 81.4% | viability, T/C (compound 0.03 µM): 87.2% and 69% and 97.2% | viability, T/C (compound 0.0949 µM): 89.4% and 72.2% and 65.5% | viability, T/C (compound 0.3 µM): 72.1% and 90.1% and 82.9% | IC50 (curve of compound): > 300 nM

Cn1ncnc1[C@H]1c2n[nH]c(=O)c3cc(F)cc(c23)N[C@@H]1c1ccc(F)cc1 + CNC(C)C(=O)NC1CN(S(=O)(=O)c2cccc(S(=O)(=O)N3CCC4CCC(C(=O)NC(c5ccccc5)c5ccccc5)N4C(=O)C(NC(=O)C(C)NC)C3)c2)CCC2CCC(C(=O)NC(c3ccccc3)c3ccccc3)N2C1=O
IC50 (curve of first compound, second compound 0.00316 µM): > 100 nM | IC50 (curve of first compound, second compound 0.01 µM): > 100 nM | IC50 [1]: > 100 nM | IC50 [2]: > 100 nM | IC50 [3]: > 100 nM | IC50 [4]: > 100 nM | viability, T/C (second compound 0.00316 µM, first compound 0.000316 µM): 71.1% | viability, T/C (second compound 0.00316 µM, first compound 0.001 µM): 64.9% | viability, T/C (second compound 0.00316 µM, first compound 0.00316 µM): 59.8% | viability, T/C (second compound 0.00316 µM, first compound 0.01 µM): 62.1% | viability, T/C (second compound 0.00316 µM, first compound 0.0316 µM): 60.9% | viability, T/C (second compound 0.00316 µM, first compound 0.1 µM): 69.1% | viability, T/C (second compound 0.01 µM, first compound 0.000316 µM): 94.7% | viability, T/C (second compound 0.01 µM, first compound 0.001 µM): 94.5% | viability, T/C (second compound 0.01 µM, first compound 0.00316 µM): 113% | viability, T/C (second compound 0.01 µM, first compound 0.01 µM): 86.8% | viability, T/C (second compound 0.01 µM, first compound 0.0316 µM): 103% | viability, T/C (second compound 0.01 µM, first compound 0.1 µM): 78.4% | viability, T/C (second compound 0.0316 µM, first compound 0.000316 µM): 103% | viability, T/C (second compound 0.0316 µM, first compound 0.001 µM): 83% | viability, T/C [5]: 90.3% | viability, T/C [6]: 87.5% | viability, T/C [7]: 102% | viability, T/C [8]: 77.6% | viability, T/C (second compound 0.1 µM, first compound 0.000316 µM): 70.6% | viability, T/C (second compound 0.1 µM, first compound 0.001 µM): 78.3% | viability, T/C [9]: 83.4% | viability, T/C [10]: 107% | viability, T/C [11]: 80.9% | viability, T/C [12]: 97.5% | viability, T/C (second compound 0.316 µM, first compound 0.000316 µM): 83.7% | viability, T/C (second compound 0.316 µM, first compound 0.001 µM): 99.3% | viability, T/C [13]: 89.4% | viability, T/C [14]: 97% | viability, T/C [15]: 64.3% | viability, T/C [16]: 83.6% | viability, T/C (second compound 1 µM, first compound 0.000316 µM): 92.6% | viability, T/C (second compound 1 µM, first compound 0.001 µM): 76.3% | viability, T/C [17]: 83.3% | viability, T/C [18]: 71.3% | viability, T/C [19]: 90.6% | viability, T/C [20]: 78.1%

C=C(F)C(=O)N1CCN(c2nc(OCC3CCCN3C)nc3c2CCN(c2cccc4cccc(Cl)c24)C3)CC1CC#N (stereo not drawn)
viability, T/C (compound 0.0316 µM): 95.4% and 95.7% and 94% | viability, T/C (compound 0.1 µM): 109% and 79.9% and 106% | viability, T/C (compound 0.316 µM): 97% and 96.7% and 84.9% | viability, T/C (compound 1 µM): 89.8% and 92.8% and 78.1% | viability, T/C (compound 3.16 µM): 94.5% and 80.9% and 93.3% | viability, T/C (compound 10 µM): 97.4% and 72.3% and 43% | IC50 (curve of compound): > 10000 nM and 8440 nM

Reference: PubChem BioAssay AID1963421 (Molecular Pharmacology Branch, DTP, NCI, 2024)
